Laboratory results reported in ChEMBL document CHEMBL5653631, “A Potent and Selective ULK1 Inhibitor Suppresses Autophagy and Sensitizes Cancer Cells to Nutrient Stress” (iScience, 2018).

Tests used:
[1] = target: T1, cAMP-dependent protein kinase catalytic subunit PRKX (Homo sapiens) (UniProt P51817); experiment: Inhibition of human recombinant PRKX at 40 nM related to control ULK1
T1 sequence (whole entry): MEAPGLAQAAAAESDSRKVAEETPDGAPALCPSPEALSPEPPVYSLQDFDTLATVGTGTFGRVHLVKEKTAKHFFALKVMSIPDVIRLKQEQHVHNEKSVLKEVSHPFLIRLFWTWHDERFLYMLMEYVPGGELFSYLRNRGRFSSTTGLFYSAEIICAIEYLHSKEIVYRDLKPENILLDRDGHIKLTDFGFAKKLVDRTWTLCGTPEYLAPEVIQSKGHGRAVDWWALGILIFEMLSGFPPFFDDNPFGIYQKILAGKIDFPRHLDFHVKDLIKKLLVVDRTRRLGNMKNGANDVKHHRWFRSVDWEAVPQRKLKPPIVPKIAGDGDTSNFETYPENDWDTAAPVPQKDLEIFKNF

[2] = target: MAP kinase-activated protein kinase 3 (Homo sapiens) (UniProt Q16644); experiment: Inhibition of human recombinant MAPKAPK3 at 40 nM related to control ULK1
Sequence of MAP kinase-activated protein kinase 3 (Homo sapiens) (Q16644 whole entry, looked up): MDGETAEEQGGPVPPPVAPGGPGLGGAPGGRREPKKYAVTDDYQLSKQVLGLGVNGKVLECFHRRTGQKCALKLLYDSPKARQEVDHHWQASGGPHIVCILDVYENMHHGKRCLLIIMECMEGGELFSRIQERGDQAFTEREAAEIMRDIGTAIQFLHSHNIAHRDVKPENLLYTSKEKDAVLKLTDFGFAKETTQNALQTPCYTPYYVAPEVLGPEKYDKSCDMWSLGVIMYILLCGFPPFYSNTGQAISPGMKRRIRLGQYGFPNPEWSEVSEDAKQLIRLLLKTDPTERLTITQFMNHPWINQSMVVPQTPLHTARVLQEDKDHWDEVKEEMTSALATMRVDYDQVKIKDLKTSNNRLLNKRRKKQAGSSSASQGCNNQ

[3] = target: Tyrosine-protein kinase JAK2 (Homo sapiens) (UniProt O60674); experiment: Inhibition of human recombinant JAK2 at 40 nM related to control ULK1
[4] = target: Serine/threonine-protein kinase 10 (Homo sapiens) (UniProt O94804); experiment: Inhibition of human recombinant LOK at 500 nM in presence of ATP by radiometric assay relative to control
[5] = target: T2, Mitogen-activated protein kinase kinase kinase 7 (Homo sapiens) (UniProt O43318); experiment: Inhibition of human recombinant TAK1 at 500 nM in presence of ATP by radiometric assay relative to control
T2 sequence (whole entry): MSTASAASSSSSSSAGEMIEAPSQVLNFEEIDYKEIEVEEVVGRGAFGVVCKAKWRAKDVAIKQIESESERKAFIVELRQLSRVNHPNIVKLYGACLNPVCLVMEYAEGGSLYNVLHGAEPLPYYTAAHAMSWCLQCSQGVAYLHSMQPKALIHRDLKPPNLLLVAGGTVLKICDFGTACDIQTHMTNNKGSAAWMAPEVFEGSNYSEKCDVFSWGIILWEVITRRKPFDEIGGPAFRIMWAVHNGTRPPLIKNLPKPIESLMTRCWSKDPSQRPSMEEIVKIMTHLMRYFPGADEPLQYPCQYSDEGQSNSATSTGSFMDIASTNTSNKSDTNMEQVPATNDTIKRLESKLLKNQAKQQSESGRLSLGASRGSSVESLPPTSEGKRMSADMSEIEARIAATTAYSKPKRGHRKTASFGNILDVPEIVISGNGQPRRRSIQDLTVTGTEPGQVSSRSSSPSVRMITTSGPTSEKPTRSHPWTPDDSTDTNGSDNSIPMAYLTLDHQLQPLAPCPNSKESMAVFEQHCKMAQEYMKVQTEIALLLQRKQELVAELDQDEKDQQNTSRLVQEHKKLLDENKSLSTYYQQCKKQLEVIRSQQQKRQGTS

[6] = target: Serine/threonine-protein kinase Nek6 (Homo sapiens) (UniProt Q9HC98); experiment: Inhibition of human recombinant NEK6 at 500 nM in presence of ATP by radiometric assay relative to control
[7] = target: Cyclin-dependent kinase 12 (Homo sapiens) (UniProt Q9NYV4); experiment: Inhibition of human recombinant CRK7 at 500 nM in presence of ATP by radiometric assay relative to control
Sequence of Cyclin-dependent kinase 12 (Homo sapiens) (Q9NYV4 whole entry, looked up): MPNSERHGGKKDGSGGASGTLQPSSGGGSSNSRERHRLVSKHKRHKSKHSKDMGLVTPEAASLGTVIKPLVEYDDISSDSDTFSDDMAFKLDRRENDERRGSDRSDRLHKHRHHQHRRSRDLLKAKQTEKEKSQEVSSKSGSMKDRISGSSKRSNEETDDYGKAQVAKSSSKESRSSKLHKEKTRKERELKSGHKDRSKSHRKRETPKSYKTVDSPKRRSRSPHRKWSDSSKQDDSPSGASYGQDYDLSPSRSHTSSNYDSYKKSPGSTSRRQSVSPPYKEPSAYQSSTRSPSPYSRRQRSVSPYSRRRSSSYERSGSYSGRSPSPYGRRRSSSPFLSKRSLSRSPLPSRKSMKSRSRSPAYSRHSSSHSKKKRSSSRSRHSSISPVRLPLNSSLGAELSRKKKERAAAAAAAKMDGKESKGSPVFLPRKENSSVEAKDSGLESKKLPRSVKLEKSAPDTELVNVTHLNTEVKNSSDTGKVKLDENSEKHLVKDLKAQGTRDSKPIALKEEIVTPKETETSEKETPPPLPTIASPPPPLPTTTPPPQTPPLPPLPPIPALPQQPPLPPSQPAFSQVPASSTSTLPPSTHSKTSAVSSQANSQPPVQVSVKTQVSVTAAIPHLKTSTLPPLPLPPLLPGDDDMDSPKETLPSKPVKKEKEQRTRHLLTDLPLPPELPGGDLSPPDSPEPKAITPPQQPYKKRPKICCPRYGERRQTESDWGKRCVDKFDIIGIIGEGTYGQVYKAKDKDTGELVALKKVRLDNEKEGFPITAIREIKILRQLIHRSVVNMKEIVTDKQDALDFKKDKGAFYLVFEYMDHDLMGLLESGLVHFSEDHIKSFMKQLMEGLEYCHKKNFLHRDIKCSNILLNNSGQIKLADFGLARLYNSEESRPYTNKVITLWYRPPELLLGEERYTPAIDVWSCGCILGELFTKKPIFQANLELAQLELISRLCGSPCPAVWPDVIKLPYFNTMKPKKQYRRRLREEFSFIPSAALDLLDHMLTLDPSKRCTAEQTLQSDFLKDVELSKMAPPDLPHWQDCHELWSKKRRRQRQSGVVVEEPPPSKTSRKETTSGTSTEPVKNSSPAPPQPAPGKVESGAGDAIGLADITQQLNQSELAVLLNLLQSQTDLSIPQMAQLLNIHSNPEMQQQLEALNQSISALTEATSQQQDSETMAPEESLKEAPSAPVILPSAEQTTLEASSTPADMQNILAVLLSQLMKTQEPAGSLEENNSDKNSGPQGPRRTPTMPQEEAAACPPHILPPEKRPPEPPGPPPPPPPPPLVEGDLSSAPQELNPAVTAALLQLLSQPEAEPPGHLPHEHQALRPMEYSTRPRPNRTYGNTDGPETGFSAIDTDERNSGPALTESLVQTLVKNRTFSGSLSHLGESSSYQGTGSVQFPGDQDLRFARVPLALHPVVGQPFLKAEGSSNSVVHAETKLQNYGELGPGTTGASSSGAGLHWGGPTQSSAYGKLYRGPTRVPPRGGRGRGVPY

[8] = target: Mitogen-activated protein kinase 11 (Homo sapiens) (UniProt Q15759); experiment: Inhibition of human recombinant p38beta at 500 nM related to control ULK1
[9] = target: T3, MAP kinase-activated protein kinase 5 (Homo sapiens) (UniProt Q8IW41); experiment: Inhibition of human recombinant MAPKAPK5 at 500 nM related to control ULK1
T3 sequence (whole entry): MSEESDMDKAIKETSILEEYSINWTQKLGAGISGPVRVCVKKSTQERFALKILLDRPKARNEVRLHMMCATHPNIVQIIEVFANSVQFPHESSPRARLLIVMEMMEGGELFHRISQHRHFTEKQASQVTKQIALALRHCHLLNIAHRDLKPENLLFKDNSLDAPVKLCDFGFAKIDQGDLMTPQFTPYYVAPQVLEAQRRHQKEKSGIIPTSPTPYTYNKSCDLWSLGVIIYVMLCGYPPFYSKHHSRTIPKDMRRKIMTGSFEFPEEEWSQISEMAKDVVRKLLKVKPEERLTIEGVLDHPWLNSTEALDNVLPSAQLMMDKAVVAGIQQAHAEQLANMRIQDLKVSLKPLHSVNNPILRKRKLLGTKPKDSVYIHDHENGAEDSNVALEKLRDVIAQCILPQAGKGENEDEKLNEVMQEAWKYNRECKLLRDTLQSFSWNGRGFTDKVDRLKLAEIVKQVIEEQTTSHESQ

[10] = target: Serine/threonine-protein kinase SIK2 (Homo sapiens) (UniProt Q9H0K1); experiment: Inhibition of human recombinant QIK at 500 nM in presence of ATP by radiometric assay relative to control
Sequence of Serine/threonine-protein kinase SIK2 (Homo sapiens) (Q9H0K1 whole entry, looked up): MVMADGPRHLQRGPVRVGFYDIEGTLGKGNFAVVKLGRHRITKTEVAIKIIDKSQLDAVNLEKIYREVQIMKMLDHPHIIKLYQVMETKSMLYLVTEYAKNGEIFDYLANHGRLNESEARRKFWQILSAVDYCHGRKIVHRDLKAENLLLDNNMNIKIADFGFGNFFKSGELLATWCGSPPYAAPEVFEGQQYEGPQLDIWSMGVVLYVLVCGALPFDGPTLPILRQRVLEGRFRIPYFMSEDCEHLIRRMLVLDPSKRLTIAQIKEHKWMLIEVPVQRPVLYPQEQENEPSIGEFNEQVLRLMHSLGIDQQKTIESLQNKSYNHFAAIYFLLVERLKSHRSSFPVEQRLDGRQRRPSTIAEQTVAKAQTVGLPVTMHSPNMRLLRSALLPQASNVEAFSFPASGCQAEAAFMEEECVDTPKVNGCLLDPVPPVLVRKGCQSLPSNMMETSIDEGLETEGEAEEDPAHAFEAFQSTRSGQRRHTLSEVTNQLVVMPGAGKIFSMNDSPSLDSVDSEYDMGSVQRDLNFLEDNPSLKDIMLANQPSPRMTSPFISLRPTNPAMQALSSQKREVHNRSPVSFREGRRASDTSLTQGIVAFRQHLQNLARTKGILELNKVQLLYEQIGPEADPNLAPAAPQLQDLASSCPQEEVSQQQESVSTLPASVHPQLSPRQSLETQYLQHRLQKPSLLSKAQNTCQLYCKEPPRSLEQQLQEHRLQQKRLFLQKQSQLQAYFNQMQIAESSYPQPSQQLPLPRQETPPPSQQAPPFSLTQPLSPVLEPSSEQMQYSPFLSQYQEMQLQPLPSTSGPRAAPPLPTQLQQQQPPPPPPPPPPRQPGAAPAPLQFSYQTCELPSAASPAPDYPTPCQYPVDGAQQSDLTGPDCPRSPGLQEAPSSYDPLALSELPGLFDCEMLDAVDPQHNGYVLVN

[11] = target: T4, Serine/threonine-protein kinase STK11 (Homo sapiens) (UniProt Q15831); experiment: Inhibition of human recombinant LKB1 at 500 nM in presence of ATP by radiometric assay relative to control
T4 sequence (whole entry): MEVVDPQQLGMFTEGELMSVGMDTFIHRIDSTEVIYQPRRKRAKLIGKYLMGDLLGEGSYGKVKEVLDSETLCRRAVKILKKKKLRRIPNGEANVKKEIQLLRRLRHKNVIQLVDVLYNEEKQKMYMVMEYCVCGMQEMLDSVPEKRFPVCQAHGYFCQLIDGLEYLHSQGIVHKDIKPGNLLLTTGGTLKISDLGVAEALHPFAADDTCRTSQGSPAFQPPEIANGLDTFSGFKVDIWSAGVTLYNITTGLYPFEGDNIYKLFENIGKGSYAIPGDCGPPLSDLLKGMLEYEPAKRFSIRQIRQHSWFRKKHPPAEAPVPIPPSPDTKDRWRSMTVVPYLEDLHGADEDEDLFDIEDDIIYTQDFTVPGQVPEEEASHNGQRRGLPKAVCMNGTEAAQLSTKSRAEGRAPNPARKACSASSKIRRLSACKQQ

[12] = target: NT-3 growth factor receptor (Homo sapiens) (UniProt Q16288); experiment: Inhibition of human recombinant TRKC at 15 nM related to control ULK1
[13] = target: Serine/threonine-protein kinase WNK2 (Homo sapiens) (UniProt Q9Y3S1); experiment: Inhibition of human recombinant Wnk2 at 15 nM in presence of ATP by radiometric assay relative to control
Sequence of Serine/threonine-protein kinase WNK2 (Homo sapiens) (Q9Y3S1 whole entry): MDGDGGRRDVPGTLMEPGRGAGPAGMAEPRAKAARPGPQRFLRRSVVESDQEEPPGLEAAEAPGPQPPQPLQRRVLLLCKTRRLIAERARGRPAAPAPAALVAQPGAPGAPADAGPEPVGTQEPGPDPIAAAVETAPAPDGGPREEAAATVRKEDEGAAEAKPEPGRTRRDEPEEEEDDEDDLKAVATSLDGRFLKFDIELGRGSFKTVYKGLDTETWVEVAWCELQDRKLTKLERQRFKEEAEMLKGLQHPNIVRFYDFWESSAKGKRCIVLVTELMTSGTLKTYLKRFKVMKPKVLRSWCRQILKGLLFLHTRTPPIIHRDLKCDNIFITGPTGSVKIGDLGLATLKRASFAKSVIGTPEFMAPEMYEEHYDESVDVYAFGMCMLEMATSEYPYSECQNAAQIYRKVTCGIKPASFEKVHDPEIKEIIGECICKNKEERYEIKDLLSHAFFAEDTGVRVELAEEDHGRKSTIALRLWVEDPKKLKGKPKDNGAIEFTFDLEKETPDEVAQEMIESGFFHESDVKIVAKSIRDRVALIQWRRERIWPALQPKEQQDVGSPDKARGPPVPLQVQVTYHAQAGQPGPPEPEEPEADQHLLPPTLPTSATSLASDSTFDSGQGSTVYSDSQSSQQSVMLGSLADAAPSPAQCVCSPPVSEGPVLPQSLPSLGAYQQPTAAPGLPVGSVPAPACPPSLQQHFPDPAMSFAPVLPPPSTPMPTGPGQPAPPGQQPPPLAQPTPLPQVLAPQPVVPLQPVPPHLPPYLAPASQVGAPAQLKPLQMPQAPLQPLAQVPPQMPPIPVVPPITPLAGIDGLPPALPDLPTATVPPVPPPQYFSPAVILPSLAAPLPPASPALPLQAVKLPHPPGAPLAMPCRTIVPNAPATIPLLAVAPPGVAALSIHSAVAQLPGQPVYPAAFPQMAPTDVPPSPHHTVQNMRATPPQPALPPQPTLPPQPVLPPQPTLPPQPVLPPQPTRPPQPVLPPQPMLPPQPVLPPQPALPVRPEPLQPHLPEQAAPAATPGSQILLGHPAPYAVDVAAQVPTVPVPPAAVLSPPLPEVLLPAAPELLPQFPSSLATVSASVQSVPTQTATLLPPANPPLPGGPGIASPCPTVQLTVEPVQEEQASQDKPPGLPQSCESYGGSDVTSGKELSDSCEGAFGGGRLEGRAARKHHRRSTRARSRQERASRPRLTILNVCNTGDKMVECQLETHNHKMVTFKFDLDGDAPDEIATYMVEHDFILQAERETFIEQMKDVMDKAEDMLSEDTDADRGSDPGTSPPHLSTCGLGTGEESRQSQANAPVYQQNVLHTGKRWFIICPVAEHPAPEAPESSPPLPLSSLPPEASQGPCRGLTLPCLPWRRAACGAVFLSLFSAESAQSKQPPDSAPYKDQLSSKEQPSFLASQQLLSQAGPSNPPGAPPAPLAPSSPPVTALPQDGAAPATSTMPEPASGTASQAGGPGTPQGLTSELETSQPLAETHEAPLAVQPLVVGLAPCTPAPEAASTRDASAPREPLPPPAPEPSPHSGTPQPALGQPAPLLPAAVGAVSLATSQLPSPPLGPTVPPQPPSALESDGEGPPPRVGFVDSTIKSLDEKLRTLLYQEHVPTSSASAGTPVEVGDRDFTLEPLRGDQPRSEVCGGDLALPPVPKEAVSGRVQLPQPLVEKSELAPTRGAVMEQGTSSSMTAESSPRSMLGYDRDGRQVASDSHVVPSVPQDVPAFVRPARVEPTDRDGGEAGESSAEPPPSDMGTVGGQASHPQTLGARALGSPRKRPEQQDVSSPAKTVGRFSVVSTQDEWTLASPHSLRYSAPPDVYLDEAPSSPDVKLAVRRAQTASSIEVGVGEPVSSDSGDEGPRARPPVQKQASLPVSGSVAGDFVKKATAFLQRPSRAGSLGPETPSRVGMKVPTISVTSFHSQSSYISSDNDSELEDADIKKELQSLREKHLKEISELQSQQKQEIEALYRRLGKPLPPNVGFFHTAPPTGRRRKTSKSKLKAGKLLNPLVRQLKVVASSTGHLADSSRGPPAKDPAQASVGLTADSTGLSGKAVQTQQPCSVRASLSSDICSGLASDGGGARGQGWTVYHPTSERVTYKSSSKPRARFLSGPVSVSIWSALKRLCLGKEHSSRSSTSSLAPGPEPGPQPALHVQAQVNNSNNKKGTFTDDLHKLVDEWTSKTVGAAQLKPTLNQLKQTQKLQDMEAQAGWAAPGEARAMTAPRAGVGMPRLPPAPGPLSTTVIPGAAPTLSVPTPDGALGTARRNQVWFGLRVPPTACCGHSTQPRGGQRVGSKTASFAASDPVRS

[14] = target: Cyclin-dependent kinase 12 (Homo sapiens) (UniProt Q9NYV4); experiment: Inhibition of human recombinant CRK7 at 15 nM related to control ULK1

SMILES: O=C(N[C@@H](C1CC1)C(F)(F)F)c1cc(-c2cnn3cc(-c4ccc(F)cc4)cnc23)cs1
- fold change (FC) [1]: 0.27
- fold change (FC) [2]: 0
- fold change (FC) [3]: 0

SMILES: CNC(=O)c1ccccc1Oc1nc(Nc2cc(OC)c(OC)c(OC)c2)ncc1Br
- inhibition [4]: 0%
- inhibition [5]: 2%
- inhibition [6]: 0%
- inhibition [7]: 0%
- fold change (FC) [8]: 0.03
- fold change (FC) [9]: 0
- inhibition [10]: 0%
- inhibition [11]: 12%

SMILES: CC(C)[C@H](NC(=O)c1cc(-c2cnn3cc(-c4ccc(OCCN5CCCCC5)cc4)cnc23)cs1)C(F)(F)F
- fold change (FC) [12]: 0
- inhibition [13]: 2%
- fold change (FC) [14]: 0.05
